In US20070202079A1, “Therapeutic compositions and methods useful in modulating protein tyrosine phosphatases” (priority 2006, published 2007):

Assays:
PRL-2 = molecular target: T1, PRL-2 (Homo sapiens, UniProt Q12974); assay: in vitro PTPase assay, recombinant PRL-2; type: biochemical
T1 construct: cDNAs of human PRL-1, PRL-2 and PRL-3 coding region were derived by RT-PCR; made in house; host or cells: DH5a bacteria (E. coli)
Source text: (§1) Sodium stibogluconate, suramin, sodium orthovanadate and GST fusion protein of SHP-1 have been described previously (Pathak et al., J. Immunol. 167, 3391 (2001)). Meglumine antimonate was obtained from Aventis. cDNAs of human PRL-1, PRL-2 and PRL-3 coding region were derived by RT-PCR from H9 cells (Safai, et al., Lancet 1, 1438 (1984)) and inserted in frame into the pGEX vector. cDNA of PRL-1R86 was generated by recombinant DNA technique using PRL-1 cDNA as template following established procedures (Jiao, et al., Mol. Cell. Biol. 16, 6985 (1996)). […]
(§2) In vitro PTPase assays were used to determine the effects of compounds on recombinant PTPases, following established procedures using a synthetic phosphotyrosine peptide or DiFMUP as the substrate (Pathak et al., J. Immunol. 167, 3391 (2001)). […] PTPase activity of individual reactions was measured by adding 100 μL of malachite green solution (UBI) and then quantifying the amounts of free phosphate cleaved by the PTPase from the peptide substrate by spectrometry (OD660 nm). […] Relative PTPase activities were calculated based on the formula: (PTPase activity in the presence of an inhibitory compound/PTPase activity in the absence of the compound)× 100%. […]

PRL-1 = molecular target: T2, PRL-1 (Homo sapiens, UniProt Q93096); assay: in vitro PTPase assay, recombinant PRL-1; type: biochemical; settings: 0.1-100 μg/ml
T2 construct: cDNAs of human PRL-1, PRL-2 and PRL-3 coding region were derived by RT-PCR; made in house; host or cells: DH5a bacteria (E. coli)
T2 sequence (Q93096 whole entry): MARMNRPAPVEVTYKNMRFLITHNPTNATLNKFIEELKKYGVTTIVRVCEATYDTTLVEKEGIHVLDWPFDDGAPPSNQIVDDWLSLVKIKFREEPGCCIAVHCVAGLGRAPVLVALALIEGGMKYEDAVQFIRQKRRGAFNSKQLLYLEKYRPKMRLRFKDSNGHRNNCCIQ
Source text: as §1, §2

[1] = test system: tumor-infiltrating and spleen immune cells (F4/80+, CD4+, CD8+); assay: immunohistochemistry of Renca tumors and spleen; type: in vivo, Balb/c mice; settings: mouse, in vivo
Method: Major internal organs and Renca tumors harvested from mice were fixed in 10% formalin or snap frozen in liquid nitrogen. H & E-stained tissue sections of the fixed samples were prepared and evaluated by microscopy as described previously (Yi, T., M. K. Pathak, D. J. Lindner, M. E. Ketterer, C. Farver, and E. C. Borden. 2002. Anticancer activity of sodium stibogluconate in synergy with IFNs. J Immunol 169:5978). Preparation of frozen tissue sections and immunohistochemistry were performed following established procedures (Joliat, M. J., P. A. Lang, B. L. Lyons, L. Burzenski, M. A. Lynes, T. Yi, J. P. Sundberg, and L. D. Shultz. 2002. Absence of CD5 dramatically reduces progression of pulmonary inflammatory lesions in SHP-1 protein-tyrosine phosphatase-deficient ‘viable motheaten’ mice. J Autoimmun 18:105). The antibodies used for immunohistochemistry were anti-CD4 (rat mAb, clone GK1.5, BD Biosciences, Franklin Lakes, N.J.), anti-CD8 (rat mAb, clone 53-6.7.5, BD Biosciences, Franklin Lakes, N.J.), anti-F4/80 (rat mAb, clone A3-1, Serotec, Oxford, UK) and anti-Asialo GM1 (rabbit polyclonal, Cedarlane, Hornby, Canada). […] Tissue sections of 2 mice/group were evaluated. The number of immune cells was semi-quantified based on the following scheme: […], 0-1 positive cells/40×field; +, 2-5 positive cells/40×field; ++, 6-10 positive cells/40×field, etc.

DU145R cells = assay: DU145R cell growth, MTT; type: cell-based, human; settings: day 6 culture
Method: DU145 cells were cultured in the presence of sodium stibogluconate (100 μg/ml) in 48 well plates for 3 weeks. Cells from a well containing a single colony were transferred to flasks, cultured in sodium stibogluconate-free medium for 3 weeks and used as DU145R cells for further characterization. Growth of DU145R cells in the absence or presence of sodium stibogluconate in day 6 culture was determined by MTT assays. cDNAs of the coding region of PRLs were derived by RT-PCR from DU145 and DU145R cells and sequenced using primers described below.

T1 sequence (Q12974 whole entry): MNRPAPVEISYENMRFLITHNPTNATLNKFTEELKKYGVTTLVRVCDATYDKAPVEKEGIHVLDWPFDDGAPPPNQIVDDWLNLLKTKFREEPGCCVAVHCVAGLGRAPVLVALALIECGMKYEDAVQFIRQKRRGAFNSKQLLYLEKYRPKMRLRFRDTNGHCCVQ

Row | Compound | activity against PRL-2 (PRL-2) | retained PRL-1 PTPase activity (PRL-1) | numbers of tumor-infiltrating T cells or NK cells [1] | growth of DU145R versus parental DU145 in presence of drug (DU145R cells)
1 | N=C(N)c1ccc(OCCCCCOc2ccc(C(=N)N)cc2)cc1 [pentamidine] | not effective | 70-80% | – | –
2 | O.O.O.O.O.O.O.O.O.O=C([O-])[C@@H]1[O][Sb]2([O-])([O][Sb]34([OH])[O][C@H]([C@H](O)CO)[C@H]([O]3)[C@H](C(=O)[O-])[O]4)[O][C@H]([C@H](O)CO)[C@@H]1[O]2.[Na+].[Na+].[Na+] [sodium stibogluconate] | – | – | little effect | growth resistance
3 | CC(=O)N1CCN(c2ccc(OCC3COC(Cn4ccnc4)(c4ccc(Cl)cc4Cl)O3)cc2)CC1 (stereo not drawn) [ketoconazole] | not effective | 60-70% | – | –
